Data on 13 compounds can be found in DBAASP.

Converted amounts (≈) assume the structure as drawn. Where only a bound is given, the exact number is not on record here.

What all share (assay): ≥ marks a high value that may be exact or a test limit, other limits are often not marked, values filed in µg/mL are converted to µM
The subject of one experiment is Streptococcus mutans.
The test system of experiment [1] is Escherichia coli ATCC 25922.
The subject of experiment [2] is Candida albicans ATCC 2002.
Experiment [3] deals with Staphylococcus aureus ATCC 25923.
Experiment [4] deals with Pseudomonas aeruginosa CMCCB 10104.

A word on the MIC: it is the smallest concentration in the dilution series that meets the test's criterion for growth inhibition.

For the compound `CC(C)C[C@H](NC(=O)[C@H](Cc1c[nH]c2ccccc12)NC(=O)[C@H](CCC(N)=O)NC(=O)[C@H](CC(C)C)NC(=O)[C@H](Cc1ccccc1)NC(=O)[C@@H](NC(=O)[C@H](CCCCN)NC(=O)[C@@H](N)Cc1ccccc1)[C@@H](C)O)C(=O)N[C@@H](Cc1cnc[nH]1)C(=O)N[C@@H](CCCN=C(N)N)C(=O)N[C@@H](Cc1ccccc1)C(N)=O` [FKTFLQWLHRF], the minimal inhibitory concentration (MIC) in the experiment on Streptococcus mutans is 21 µM (≈ 32 µg/mL).
Turning to `CC[C@H](C)[C@@H]1NC(=O)[C@H](C)NC(=O)[C@@H](NC(=O)[C@H](Cc2ccccc2)NC(=O)[C@@H](NC(=O)[C@@H](NC(=O)[C@@H]2CCCN2C(=O)[C@H](CC(C)C)NC(=O)[C@@H](NC(=O)[C@H](Cc2cnc[nH]2)NC(=O)[C@@H](NC(=O)[C@H](C)NC(=O)[C@@H](NC(=O)[C@H](CC(C)C)NC(=O)[C@H](CC(C)C)NC(=O)[C@@H](NC(=O)[C@H](C)NC(=O)[C@@H]2CCCN2C(=O)[C@H](CC(C)C)NC(=O)[C@@H](N)Cc2ccccc2)C(C)C)C(C)C)[C@@H](C)O)C(C)C)[C@@H](C)O)C(C)C)CSSC[C@@H](C(=O)O)NC(=O)[C@H](CCCCN)NC(=O)[C@H](CCCN=C(N)N)NC(=O)[C@H]([C@@H](C)O)NC1=O` [FLPAVLLVATHVLPTVFCAITRKC], the MIC is 1.3 µM (≈ 3.4 µg/mL) in experiment [1], 2.6 µM (≈ 6.79 µg/mL) in experiment [2], 2.6 µM (≈ 6.79 µg/mL) in experiment [3] and 10.4 µM (≈ 27.2 µg/mL) in experiment [4].
Turning to `CC[C@H](C)[C@H](NC(=O)CN)C(=O)N[C@@H](Cc1ccccc1)C(=O)N[C@@H](CO)C(=O)N[C@@H](CCCCN)C(=O)N[C@H](C(=O)N[C@@H](CO)C(=O)NCC(=O)N[C@@H](CCCCN)C(=O)N[C@@H](C)C(=O)N[C@H](C(=O)N[C@@H](CCCCN)C(=O)N[C@@H](CC(N)=O)C(=O)N[C@@H](CC(C)C)C(=O)N[C@@H](Cc1ccccc1)C(=O)N[C@H](C(=O)N[C@@H](CCCCN)C(=O)NCC(=O)N[C@@H](C)C(=O)N[C@@H](CCC(=O)O)C(=O)N[C@@H](CC(N)=O)C(=O)N[C@H](C(=O)NCC(=O)N[C@@H](CCCCN)C(=O)N[C@@H](Cc1cnc[nH]1)C(=O)N[C@H](C(=O)NCC(=O)N[C@@H](CCSC)C(=O)N[C@@H](CC(=O)O)C(=O)N[C@H](C(=O)N[C@H](C(=O)N[C@@H](CCCN=C(N)N)C(=O)N[C@H](C(=O)NCC(=O)N[C@H](C(=O)N[C@@H](CC(=O)O)C(=O)N[C@H](C(=O)N[C@H](C(=O)NCC(=O)N[C@H]1CSSC[C@@H](C(=O)O)NC(=O)[C@H](CCC(=O)O)NC(=O)CNC(=O)[C@H](CCCCN)NC(=O)[C@H]([C@@H](C)CC)NC(=O)[C@H](CCCCN)NC1=O)C(C)C)C(C)C)[C@@H](C)CC)[C@@H](C)O)C(C)C)C(C)C)C(C)C)C(C)C)[C@@H](C)CC)[C@@H](C)CC)[C@@H](C)CC` [GIFSKISGKAIKNLFIKGAENVGKHVGMDVVRTGIDVVGCKIKGEC], the MIC in experiment [1], in experiment [2], in experiment [3] and in experiment [4] was 1.79 µM (≈ 8.6 µg/mL) throughout.
As for `CC[C@H](C)[C@H](NC(=O)CN)C(=O)N[C@@H](CC(C)C)C(=O)N[C@@H](CO)C(=O)NCC(=O)N[C@@H](CC(C)C)C(=O)N[C@@H](CC(C)C)C(=O)NCC(=O)N[C@H](C(=O)NCC(=O)N[C@@H](CCCCN)C(=O)N[C@@H](CCSC)C(=O)N[C@@H](CC(C)C)C(=O)N[C@H](C(=O)N[C@H]1CSSC[C@@H](C(=O)O)NC(=O)[C@H](CC(C)C)NC(=O)CNC(=O)[C@H](CO)NC(=O)[C@H](CC(C)C)NC(=O)CNC1=O)C(C)C)C(C)C` [GILSGLLGVGKMLVCGLSGLC], the minimum inhibitory concentration (MIC) was 5.12 µM (≈ 10.2 µg/mL) in experiment [1], 5.12 µM (≈ 10.2 µg/mL) in experiment [2], 10.2 µM (≈ 20.4 µg/mL) in experiment [3] and 10.2 µM (≈ 20.4 µg/mL) in experiment [4].
Regarding `CC[C@H](C)[C@H](NC(=O)[C@H](C)NC(=O)[C@H](CCSC)NC(=O)[C@H](CC(N)=O)NC(=O)[C@H](CCCCN)NC(=O)[C@H](Cc1ccccc1)NC(=O)[C@@H](NC(=O)[C@H](CC(=O)O)NC(=O)[C@H](CC(C)C)NC(=O)[C@H](CC(C)C)NC(=O)CN)[C@@H](C)O)C(=O)N[C@@H](CC(N)=O)C(=O)N[C@@H](C)C(=O)N[C@@H](C)C(=O)N[C@@H](Cc1cnc[nH]1)C(=O)NCC(=O)N[C@@H](C)C(=O)NCC(=O)N[C@H](C(=O)N[C@@H](CO)C(=O)N[C@H](C(=O)N[C@@H](CC(C)C)C(=O)N[C@@H](CC(N)=O)C(=O)N[C@@H](C)C(=O)N[C@@H](CC(C)C)C(=O)N[C@@H](CO)C(=O)N[C@H]1CSSC[C@@H](C(=O)O)NC(=O)[C@H]([C@@H](C)O)NC(=O)[C@H](CCCCN)NC(=O)[C@H](CCCCN)NC(=O)[C@H](CC(C)C)NC(=O)[C@H](CCCCN)NC1=O)C(C)C)C(C)C` [GLLDTFKNMAINAAHGAGVSVLNALSCKLKKTC], the MIC was 1.86 µM (≈ 6.3 µg/mL) in experiment [1], 0.944 µM (≈ 3.2 µg/mL) in experiment [2], 1.86 µM (≈ 6.3 µg/mL) in experiment [3] and 3.72 µM (≈ 12.6 µg/mL) in experiment [4].
As for `CSCC[C@H](NC(=O)[C@H](CC(N)=O)NC(=O)[C@H](CCCCN)NC(=O)[C@H](Cc1ccccc1)NC(=O)[C@@H](NC(=O)[C@H](CC(=O)O)NC(=O)[C@H](CC(C)C)NC(=O)[C@H](CC(C)C)NC(=O)CN)[C@@H](C)O)C(=O)N[C@@H](C)C(=O)N[C@@H](CC(C)C)C(=O)N[C@@H](CC(N)=O)C(=O)N[C@@H](C)C(=O)N[C@@H](C)C(=O)N[C@@H](CCCCN)C(=O)N[C@@H](CO)C(=O)N[C@@H](C)C(=O)NCC(=O)N[C@H](C(=O)N[C@@H](CO)C(=O)N[C@H](C(=O)N[C@@H](CC(C)C)C(=O)N[C@@H](CC(N)=O)C(=O)N[C@@H](C)C(=O)N[C@@H](CC(C)C)C(=O)N[C@@H](CO)C(=O)N[C@H]1CSSC[C@@H](C(=O)O)NC(=O)[C@H]([C@@H](C)O)NC(=O)[C@H](CCCCN)NC(=O)[C@H](CO)NC(=O)[C@H](CC(C)C)NC(=O)[C@H](CCCCN)NC1=O)C(C)C)C(C)C` [GLLDTFKNMALNAAKSAGVSVLNALSCKLSKTC], the MIC in experiment [1] stood at 3.92 µM (≈ 13.2 µg/mL); in experiment [2], 1.96 µM (≈ 6.6 µg/mL); in experiment [3], 1.96 µM (≈ 6.6 µg/mL); in experiment [4], 1.96 µM (≈ 6.6 µg/mL).
Take `CC[C@H](C)[C@H](N)C(=O)N[C@@H](CCCCN)C(=O)N[C@@H](CCC(N)=O)C(=O)N[C@@H](CC(C)C)C(=O)N[C@@H](CC(C)C)C(=O)N[C@@H](Cc1cnc[nH]1)C(=O)N[C@@H](Cc1ccccc1)C(=O)N[C@@H](Cc1ccccc1)C(=O)N[C@@H](CCC(N)=O)C(=O)N[C@@H](CCCN=C(N)N)C(=O)N[C@@H](Cc1ccccc1)C(=O)NCC(=O)NCC(=O)NCC(=O)N[C@@H](CCCN=C(N)N)C(=O)N[C@@H](Cc1c[nH]c2ccccc12)C(=O)N[C@@H](CCCN=C(N)N)C(=O)N[C@@H](CCCN=C(N)N)C(=O)N[C@@H](CC(C)C)C(=O)N[C@@H](CC(C)C)C(=O)N[C@@H](CCCCN)C(=O)N[C@@H](CCCCN)C(=O)N[C@@H](CC(C)C)C(=O)N[C@@H](Cc1cnc[nH]1)C(=O)N[C@@H](Cc1cnc[nH]1)C(=O)N[C@@H](CC(C)C)C(=O)N[C@@H](CC(C)C)C(=O)N[C@@H](Cc1cnc[nH]1)C(N)=O` [IKQLLHFFQRFGGGRWRRLLKKLHHLLH]: the MIC in the experiment on Streptococcus mutans was 4.52 µM (≈ 16 µg/mL).
Still for that read-out and setting: the figure for `CC[C@H](C)[C@H](N)C(=O)N[C@@H](CCCCN)C(=O)N[C@H](C(=O)N[C@@H](CC(C)C)C(=O)N[C@@H](CC(C)C)C(=O)N[C@@H](Cc1cnc[nH]1)C(=O)N[C@@H](Cc1ccccc1)C(=O)N[C@@H](Cc1ccccc1)C(=O)N[C@@H](CCC(N)=O)C(=O)N[C@@H](CCCN=C(N)N)C(=O)N[C@@H](Cc1ccccc1)C(N)=O)[C@@H](C)O` [IKTLLHFFQRF] is 30.8 µM (≈ 44.7 µg/mL); for `CC(C)C[C@H](NC(=O)[C@@H](NC(=O)[C@H](CCCN=C(N)N)NC(=O)[C@H](CCCCN)NC(=O)[C@@H](NC(=O)[C@H](CCCCN)NC(=O)[C@H](CCC(N)=O)NC(=O)[C@H](C)NC(=O)[C@H](CC(C)C)NC(=O)[C@@H](N)CCCCN)C(C)C)C(C)C)C(=O)N[C@@H](CCCN=C(N)N)C(=O)O` [KLAQKVKRVLR] it is at least 93.4 µM.
In the case of `CC(C)C[C@H](NC(=O)[C@H](Cc1c[nH]c2ccccc12)NC(=O)[C@@H]1CCCN1C(=O)[C@@H]1CCCN1C(=O)[C@H](CC(C)C)NC(=O)[C@@H](N)CC(C)C)C(=O)N[C@@H](CCCN=C(N)N)C(=O)N1CCC[C@H]1C(=O)N[C@@H](CCCN=C(N)N)C(=O)N[C@@H](CC(N)=O)C(=O)NCC(=O)O` [LLPPWLRPRNG], the MIC is above 152 µM in experiment [1], at least 152 µM in experiment [2], above 152 µM in experiment [3] and at least 152 µM in experiment [4].
`NCCCC[C@H](NC(=O)[C@H](Cc1c[nH]c2ccccc12)NC(=O)[C@H](Cc1c[nH]c2ccccc12)NC(=O)[C@H](CCCCN)NC(=O)[C@H](CCCN=C(N)N)NC(=O)[C@H](CCCN=C(N)N)NC(=O)[C@@H](N)CCCN=C(N)N)C(=O)O` [RRRKWWK] showed a minimum inhibitory concentration (MIC) in the experiment with Streptococcus mutans of at least 224 µM.
The same measure, in the same setting: the value for `C[C@H](NC(=O)[C@H](CO)NC(=O)[C@H](C)NC(=O)[C@H](Cc1ccccc1)NC(=O)[C@H](Cc1c[nH]c2ccccc12)NC(=O)[C@H](CCCN=C(N)N)NC(=O)[C@H](Cc1c[nH]c2ccccc12)NC(=O)[C@H](CCCN=C(N)N)NC(=O)[C@H](Cc1c[nH]c2ccccc12)NC(=O)[C@@H](N)CCCN=C(N)N)C(=O)N[C@@H](CO)C(=O)N[C@@H](C)C(=O)N[C@@H](CCCN=C(N)N)C(=O)N[C@@H](Cc1c[nH]c2ccccc12)C(=O)N[C@@H](CCCN=C(N)N)C(=O)N[C@@H](Cc1c[nH]c2ccccc12)C(=O)N[C@@H](CCCN=C(N)N)C(=O)N[C@@H](Cc1c[nH]c2ccccc12)C(=O)N[C@@H](Cc1ccccc1)C(N)=O` [RWRWRWFASASARWRWRWF] was 5.81 µM (≈ 16 µg/mL).
With `CC[C@H](C)[C@@H]1NC(=O)[C@@H](NC(=O)[C@H](CCCN=C(N)N)NC(=O)[C@H](CO)NC(=O)[C@@H](N)[C@@H](C)O)CSSC[C@@H](C(=O)N[C@@H](CO)C(=O)O)NC(=O)[C@H](CCCCN)NC(=O)[C@H](CCCCN)NC(=O)[C@H](CCCN=C(N)N)NC(=O)[C@H](CCCN=C(N)N)NC(=O)[C@H](Cc2ccc(O)cc2)NC(=O)[C@H](Cc2ccccc2)NC1=O` [TSRCIFYRRKKCS], the minimal inhibitory concentration (MIC) in experiment [1] was 18.2 µM (≈ 30 µg/mL); in experiment [2] it was 18.2 µM (≈ 30 µg/mL); in experiment [3], above 72.8 µM; in experiment [4] it was 18.2 µM (≈ 30 µg/mL).
